Assay results as given in the NIST ThermoML archive (doi:10.1016/j.jct.2008.04.008).
Several values for one entry are separate records, joined by “and”; a condition that tells them apart may be missing. Identical values can stand only once.

Key:
[1] = mn = molality of the nth substance listed, in mol/kg; details: Liquid; for speed of sound: Pulse-echo method
[2] = Liquid

[Br-].c1ccc([P+](c2ccccc2)(c2ccccc2)c2ccccc2)cc1 [tetraphenylphosphorane bromide] + CO
[1]
Details | mass density, 283.15 K [kg/m3] | mass density, 288.15 K [kg/m3] | mass density, 293.15 K [kg/m3] | mass density, 298.15 K [kg/m3] | mass density, 303.15 K [kg/m3] | mass density, 308.15 K [kg/m3] | mass density, 313.15 K [kg/m3] | speed of sound, 298.15 K [m/s]
m1 = 0.0261 | 804.518 | 799.837 | 795.15 | 790.45 | 785.734 | 780.996 | 776.229 | 1106.5
m1 = 0.03452 | 805.776 | 801.095 | 796.408 | 791.716 | 787.003 | 782.267 | 777.504 | 1107.7
m1 = 0.04277 | 807.01 | 802.333 | 797.652 | 792.957 | 788.242 | 783.515 | 778.757 | 1109.1
m1 = 0.05089 | 808.208 | 803.532 | 798.856 | 794.167 | 789.459 | 784.728 | 779.972 | 1110.1
m1 = 0.05974 | – | – | – | – | – | – | – | 1111.4
m1 = 0.06826 | 810.754 | 806.084 | 801.412 | 796.727 | 792.025 | 787.301 | 782.553 | 1112.8
m1 = 0.08592 | 813.321 | 808.661 | 803.994 | 799.314 | 794.618 | 789.901 | 785.158 | 1115.3
m1 = 0.1039 | 815.894 | 811.236 | 806.575 | 801.901 | 797.21 | 792.499 | 787.763 | 1117.8
m1 = 0.1212 | 818.357 | 813.704 | 809.048 | 804.378 | 799.693 | 794.987 | 790.256 | 1119.9
m1 = 0.1384 | 820.799 | 816.147 | 811.492 | 806.831 | 802.152 | 797.452 | 792.728 | 1122.4
m1 = 0.1565 | 823.304 | 818.656 | 814.011 | 809.353 | 804.679 | 799.985 | 795.267 | 1124.7
m1 = 0.1747 | 825.843 | 821.2 | 816.556 | 811.905 | 807.237 | 802.548 | 797.837 | 1127

CO [methanol] + [Na+].[O-][Cl+3]([O-])([O-])[O-]
[1], m2 = 0
Details | mass density [kg/m3]
283.15 K | 800.568
288.15 K | 795.879
293.15 K | 791.184
298.15 K | 786.475
303.15 K | 781.746
308.15 K | 776.997
313.15 K | 772.219

CO [methanol] + [Br-].c1ccc([P+](c2ccccc2)(c2ccccc2)c2ccccc2)cc1
[1], m2 = 0
Details | mass density [kg/m3]
283.15 K | 800.567
288.15 K | 795.88
293.15 K | 791.184
298.15 K | 786.475
303.15 K | 781.748
308.15 K | 776.997
313.15 K | 772.219

CO [methanol] + [Na+].c1ccc([B-](c2ccccc2)(c2ccccc2)c2ccccc2)cc1
[1], m2 = 0
Details | mass density [kg/m3]
283.15 K | 800.575
288.15 K | 795.888
293.15 K | 791.194
298.15 K | 786.485
303.15 K | 781.758
308.15 K | 777.007
313.15 K | 772.229

CO [methanol] + [Br-].[Na+]
[1], m2 = 0
Details | mass density [kg/m3]
283.15 K | 800.625
288.15 K | 795.934
293.15 K | 791.243
298.15 K | 786.534
303.15 K | 781.808
308.15 K | 777.058
313.15 K | 772.28

[Br-].[Na+] [sodium bromide] + CO
[1]
Details | mass density, 283.15 K [kg/m3] | mass density, 288.15 K [kg/m3] | mass density, 293.15 K [kg/m3] | mass density, 298.15 K [kg/m3] | mass density, 303.15 K [kg/m3] | mass density, 308.15 K [kg/m3] | mass density, 313.15 K [kg/m3] | speed of sound, 298.15 K [m/s]
m1 = 0.06477 | 805.613 | 800.933 | 796.252 | 791.558 | 786.848 | 782.114 | 777.354 | 1106.1
m1 = 0.08313 | 807.039 | 802.363 | 797.683 | 792.99 | 788.28 | 783.548 | 778.794 | 1107.1
m1 = 0.1039 | 808.613 | 803.939 | 799.259 | 794.566 | 789.865 | 785.138 | 780.385 | 1107.7
m1 = 0.1241 | 810.154 | 805.482 | 800.807 | 796.119 | 791.41 | – | – | 1108.7
m1 = 0.1439 | 811.667 | 806.995 | 802.323 | 797.64 | 792.938 | 788.218 | 783.471 | 1109.1
m1 = 0.1639 | 813.155 | 808.489 | 803.818 | 799.135 | 794.436 | 789.716 | 784.971 | –
m1 = 0.2071 | 816.441 | 811.772 | 807.109 | 802.43 | 797.736 | 793.019 | 788.281 | 1111.8
m1 = 0.2491 | 819.583 | 814.916 | 810.253 | 805.577 | 800.887 | 796.174 | 791.44 | 1113.2
m1 = 0.2915 | 822.759 | 818.104 | 813.441 | 808.767 | 804.078 | 799.369 | 794.64 | 1114.9
m1 = 0.3318 | 825.782 | 821.118 | 816.459 | 811.79 | 807.103 | 802.396 | 797.671 | 1116.1
m1 = 0.3735 | 828.905 | 824.245 | 819.585 | 814.919 | 810.236 | 805.533 | 800.808 | 1117.6
m1 = 0.4167 | 832.098 | 827.443 | 822.783 | 818.116 | 813.434 | 808.735 | 804.019 | 1119.2

CO [methanol]
[2]
Details | mass density
283.15 K | 800.575 kg/m3 [middle of 4 runs]
288.15 K | 795.888 kg/m3 [middle of 4 runs]
293.15 K | 791.194 kg/m3 and 791.243 kg/m3 and 791.184 kg/m3
298.15 K | 786.534 kg/m3 and 786.475 kg/m3 and 786.485 kg/m3
303.15 K | 781.758 kg/m3 [middle of 4 runs]
308.15 K | 777.058 kg/m3 and 776.997 kg/m3 and 777.007 kg/m3
313.15 K | 772.28 kg/m3 and 772.219 kg/m3 and 772.229 kg/m3

Details | speed of sound [m/s]
[2], 298.15 K, 101.33 kPa, Pulse-echo method | 1102.4

[Na+].c1ccc([B-](c2ccccc2)(c2ccccc2)c2ccccc2)cc1 [sodium tetraphenylboron] + CO
[1]
Details | mass density, 283.15 K [kg/m3] | mass density, 288.15 K [kg/m3] | mass density, 293.15 K [kg/m3] | mass density, 298.15 K [kg/m3] | mass density, 303.15 K [kg/m3] | mass density, 308.15 K [kg/m3] | mass density, 313.15 K [kg/m3] | speed of sound, 298.15 K [m/s]
m1 = 0.02864 | 803.855 | 799.183 | 794.505 | 789.813 | 785.107 | 780.377 | 775.618 | –
m1 = 0.03742 | 804.851 | 800.185 | 795.511 | 790.825 | 786.118 | 781.392 | 776.646 | –
m1 = 0.04715 | 805.936 | 801.274 | 796.607 | 791.928 | 787.23 | 782.507 | – | –
m1 = 0.05653 | 806.979 | 802.323 | 797.659 | 792.985 | 788.298 | 783.585 | 778.847 | –
m1 = 0.06567 | 807.991 | 803.338 | 798.679 | 794.015 | 789.33 | 784.622 | 779.888 | 1114.1
m1 = 0.07566 | 809.099 | 804.455 | 799.8 | 795.14 | 790.46 | 785.759 | 781.031 | 1115.7
m1 = 0.09526 | 811.246 | 806.611 | 801.967 | 797.318 | 792.652 | 787.962 | 783.246 | 1119
m1 = 0.1146 | 813.35 | 808.726 | 804.095 | 799.453 | 794.791 | 790.107 | 785.409 | 1122.4
m1 = 0.1339 | 815.434 | 810.82 | 806.2 | 801.569 | 796.921 | 792.253 | 787.56 | 1125.7
m1 = 0.1529 | 817.425 | 812.819 | 808.212 | 803.59 | 798.952 | 794.294 | 789.61 | 1128.3
m1 = 0.173 | 819.579 | 814.984 | 810.383 | 805.772 | 801.145 | 796.5 | 791.829 | 1131.7
m1 = 0.1931 | 821.677 | 817.092 | 812.503 | 807.899 | 803.28 | 798.648 | 793.987 | 1135.5
